Patent publication US20250381180A1, “METHODS OF TREATING OR PREVENTING OVERACTIVE BLADDER SYNDROME” (Purdue Pharma L.P., priority 2022, published 2025)

What was measured:
[1] = Urine concentrations in humans after a single oral dose; format: in vivo, human; settings: LLOQ 229 nM
[2] = Phase 1 single-dose pharmacokinetics, mild renal impairment vs normal renal function; format: in vivo, human; settings: single oral 1.0-mg immediate-release tablet
Experimental: This was a phase 1, nonrandomized, open-label, parallel-group, single-dose study. A total of 20 subjects (10 subjects with mild renal impairment and 10 healthy subjects with normal renal function) were studied.
At screening, subjects were assigned to a study group according to estimated glomerular filtration rate (eGFR), calculated using the 2021 Chronic Kidney Disease Collaboration (CKD-EPI 2021) formula as follows, in Table 11: […]
Subjects remained fasted for 4 hours after study drug dosing (except diabetic subjects, who were allowed a light breakfast at 2 hours after study drug dosing as judged by the investigator). Except as part of study drug administration, subjects restricted their consumption of water for 2 hours before dosing and for 2 hours after dosing. At all other times during the study, subjects were able to consume water ad libitum.

[3] = tested on: rhythmic bladder contractions (RBC) in anesthetized female rats; assay: Isovolumetric model: rhythmic bladder contractions (RBC), cystometry; format: in vivo, rat; settings: for Inhibition time: after i.v.; for RBC amplitude, basal / RBC frequency, basal: basal period −30/0 min before i.v. administration, group mean
Description: In rats, under isovolumetric condition, bladder distension induced rhythmic bladder contractions (RBC) (Aizawa et al, (2015) Effects of L-arginine, mirabegron, and oxybutynin on the primary bladder afferent nerve activities synchronized with reflexic, rhythmic bladder contractions in the rat. Neurourology & Urodynamics 34:368-374). This isovolumetric model allows the evaluation of compound on RBC. It is a closed system where the bladder is slowly infused through a urethral catheter with saline until the occurrence of spontaneous rhythmic bladder contractions.
Test substance effects were compared to that of the reference substance, tolterodine, an […], marketed for overactive bladder in humans.
Protocol: • Animals were anesthetized with urethane (i.p.). • Ureters were ligated and sectioned close to the kidneys. • Intravesical catheter was inserted into the bladder though the urinary meatus. • Urinary meatus was closed. • A catheter was inserted into the jugular vein for compound administration. • Bladder was filled with saline until the occurrence of RBC. • After 30 min basal period, compounds were administered as described below. • The effect of the test substances was followed by 1-hour post administration.
Rats were anesthetized with an intraperitoneal administration of urethane (1 g/kg). The ureters were ligated and sectioned close to the kidneys. A catheter (0.30 and 0.70 mm of inner and outer diameters, respectively) was inserted through the urinary meatus into the bladder before urethral ligature. Another catheter (0.58 and 0.96 mm of inner and outer diameters, respectively) was inserted into the jugular vein for intravenous (i.v.) administration.
For all group, animals were treated by i.v. route (1 mL/kg) (slow bolus) after the basal period.
The vesical catheter was connected via a T-tube to a strain gauge (to measure intra-vesical pressure) and to a syringe. Isovolumetric bladder contractions were induced by stepwise injections of physiological saline at room temperature (100 μL every 5 min) until stable RBC occurred. Vesical pressure was continuously recorded. After a 30 min control period (basal values), substances or vehicle were i.v. administered. The effects of substances were followed during 60 min after administration. At the end of the experiments, animals were sacrificed by cervical dislocation.
The following parameters were analyzed: • Amplitude of RBC (mmHg) • Frequency of RBC (number/30 min) • Time of inhibition (sec)
The % variation from the basal values were calculated for RBC frequency and amplitude.
Statistical analysis and graphs were performed using GraphPad Prism® (GraphPad Software Inc., La Jolla, CA, USA). A p value <0.05 was accepted for statistical significance.

[4] = 0/60 min after i.v., Cpd (IA) 3 mg/kg (n=8), tolterodine 1 mg/kg, mean
[5] = 0/60 min after i.v., Cpd (IA) 3 mg/kg, tolterodine 1 mg/kg, mean
[6] = 0/60 min after i.v., Cpd (IA) 3 mg/kg, tolterodine 1 mg/kg, mean, listed as compound of formula (IA)
[7] = listed as compound of formula (IA)
[8] = i.v., Cpd (IA) 3 mg/kg, tolterodine 1 mg/kg, vs basal
[9] = i.v., Cpd (IA) 3 mg/kg, tolterodine 1 mg/kg, vs vehicle

O=C(O)c1nc2ccccc2n([C@H]2C[C@H]3CCC[C@@H](C2)N3C2CC3CCCC(C3)C2)c1=O (stereo partly shown) [Cpd (IA)]
Urine Conc., mean ([1]; single oral dose 0.2 mg, 16 to 24 h): BCL
Urine Conc., mean ([1]; single oral dose 0.2 mg, 24 to 32 h): BCL
Urine Conc., mean ([1]; single oral dose 0.2 mg, 32 to 40 h): BCL
Urine Conc., mean ([1]; single oral dose 0.2 mg, 40 to 48 h): BCL
Urine Conc., mean ([1]; single oral dose 0.6 mg, 16 to 24 h): BCL
Urine Conc., mean ([1]; single oral dose 0.6 mg, 24 to 32 h): BCL
Urine Conc., mean ([1]; single oral dose 0.6 mg, 32 to 40 h): BCL
Urine Conc., mean ([1]; single oral dose 0.6 mg, 40 to 48 h): BCL
Urine Conc., mean ([1]; single oral dose 2 mg, 16 to 24 h): 409 nM
Urine Conc., mean ([1]; single oral dose 2 mg, 24 to 32 h): BCL
Urine Conc., mean ([1]; single oral dose 2 mg, 32 to 40 h): BCL
Urine Conc., mean ([1]; single oral dose 2 mg, 40 to 48 h): BCL
Urine Conc., mean ([1]; single oral dose 10 mg, 16 to 24 h): 1004 nM
Urine Conc., mean ([1]; single oral dose 10 mg, 40 to 48 h): BCL
plasma concentrations at 72 and 96 hours ([2]; all subjects): all below the limit of quantitation
plasma concentrations over time, mild renal impairment versus normal renal function ([2]; n=10 per group): comparable
RBC amplitude, % variation from basal [3, 4]: 1.25%
RBC amplitude, treated period [3, 4]: 27.57 mmHg
RBC frequency, % variation from basal [3, 5]: ~88.57%
RBC frequency, treated period [3, 5]: 3.05 nb of RBC/30 min
RBC frequency, % variation from basal [3, 6]: -88.57±3.68%
RBC frequency, treated period [3, 6]: 3.05±1.02 nb of RBC/30 min
Inhibition time ([3]; Cpd (IA) 3 mg/kg, tolterodine 1 mg/kg, mean): 2860.51 s
Inhibition time ([3]; Cpd (IA) 3 mg/kg, tolterodine 1 mg/kg, mean, listed as compound of formula (IA)): 2860.51 ± 272.38 s
RBC amplitude, basal [3]: 29.49 mmHg
RBC frequency, basal [3]: 25.90 nb of RBC/30 min
RBC amplitude, basal [3, 7]: 29.49±2.46 mmHg
RBC frequency, basal [3, 7]: 25.90±1.36 nb of RBC/30 min
bladder afferent activity ([3]; conclusion of Example 1): significantly decreased
RBC amplitude, effect versus basal [3, 8]: No significant effect
RBC frequency, effect versus basal [3, 8]: significantly decreased
RBC amplitude (% variation), effect versus vehicle [3, 9]: did not significantly modify
RBC frequency (% variation), effect versus vehicle [3, 9]: significantly decreased
time of inhibition, effect versus vehicle [3, 9]: significantly increased
